The results in this text go back to patent USRE34630E, “Substituted isoquinolines and methods of using same” (Euroceltique, S.A., priority 1992, dated 1994).

pIC50: −log10 of the molar value. Like-named read-outs stand apart in the source and are kept apart here.

For test [1], the system named is rabbit platelets (PAF-induced serotonin release). Kind of test: PAF-induced release of tritiated serotonin from rabbit platelets. Format: cell-based, rabbit (New Zealand White). Conditions: Oryctolagus cuniculus, Platelet; for inhibition at 30 µM: read-out: Platelet Serotonin Release % Inhibition at 30 uM, 30 uM; for pIC50: read-out: Platelet Serotonin Release I50. Here is the method: (§1) The cellular responses studied include (1) PAF-induced release of preloaded, radiolabeled serotonin from rabbit platelets, (2) PAF-induced degranulation (release of myeloperoxidase) from purified human nuetrophils and (3) PAF-induced adhesion of human neutrophils to latex beads. Each putative antagonist was tested at 30 μM for its effect on each response. Selected compounds were tested in a concentration-response fashion.
Blood is collected from the central ear artery of New Zealand White rabbits into a 1:7 volume of acid citrate dextrose. The blood is centrifuged at 1100 rpm for 20 minutes. The isolated platelet rich plasma (PRP) is then incubated at 37° C. for 30 minutes with 1 μCi^3 H-serotonin binoxalate per ml PRP. Labeled platelets are pelleted by centrifugation at 2800 rpm for 20 minutes. The platelets are then washed in Tyrodes gel buffer without calcium in the presence of 0.1 mM EGTA and again pelleted at 2800 rpm for 20 minutes. This wash process is repeated. The washed platelet pellet is resuspended in Tyrodes gel buffer without calcium and adjusted to a concentration of 1.25×10^9 platelets/ml, as determined from a standard curve of absorbance at 530 num vs platelet concentration.
Polystyrene reaction tubes containing various dilutions of PAF (for standard curve determination) or a single concentration of PAF with and without the subject antagonist in a 0.45 ml volume of Tyrodes gel buffer with calcium each receive a 0.05 ml aliquot of the paltelet preparation. After a 90 second incubation period at room temperature, the reaction is stopped by the addition of 0.02 ml of 9.25 % formaldehyde. The platelets are then pelleted by centrifugation at 2800 rpm for 15 minutes at 4° C.
Aliquots (0.1 ml) of the supernatants are added to 3 ml liquid scintillation fluid in polypropylene vials. The samples are then counted for radioactivity in a liquid scintillation counter. The platelets in one set of reaction tubes containing only buffer and labeled platelets are lysed using 0.01 ml 10% Triton TX, and the total reactivity is determined by liquid scintillation counting. The determined dpm represent the total radioactivity in the labelled platelets. The results for each determination are reported as the percentage release of the total radioactivity in the sample. The extent of PAF antagonist activity is expressed as the percent inhibition of ^3 H-serotonin release compared to that amount released by PAF alone.

For test [2], the system named is human neutrophils (PAF-induced degranulation). Kind of test: PAF-induced degranulation (myeloperoxidase release) of human neutrophils. The format is cell-based. Conditions: Neutrophil. Here is the method:
as §1
Neutrophils are isolated from human venous blood via a two-step sedimentation procedure, and contaminating erythrocytes are selectively lysed. The neutrophils were preincubated in 0.25% Hanks buffer containing bovine serum albumin (BSA) with 5 ug Cytochalasin B/ ml cells for 5 minutes at 37° C. Neutrophils (4×10^6) are added to stimuli (PAF or buffer control) in the presence and absence of antagonist in Krebs-Ringer buffer to a final volume of 1.0 ml, and incubated at 37° C. for appropriate periods of time. At the end of the reaction period the neutrophils are pelleted by centrifugation at 3000 rpm for 5 minutes at 4° C.
Aliquots (0.2 ml) of the supernatants are added to polysyrene tubes to which are added the following: 0.6 ml)>25% Hanks BSA, 0.5 ml MPO buffer (0.2 M NaPO4, pH 6.2) and to start the color reaction 0.2 ml of a 1:1 v/v 0.05% H2 O2 :1.25 mg/ml dimethoxybenzidine (DMB). The reaction is allowed to run at room temperature for 15 minutes and is stopped by the addition of 0.05 ml 2% sodium azide. The developed color is quantitated in a spectrophotometer at 460 nm. The amount of myeloperoxidase (MPO) released by PAF stimulation can thus be determined. In order to determine the total amount of MPO in the cells an unstimulated control tube of neutrophils is lysed using 0.01 ml 10% Triton TX and the total MPO is determined via the color reaction and spectrophotometer reading. The activity of a given concentration of PAF is expressed as the percentage of the total MPO released. The activity of antagonists at a given concentration is expressed as a percentage of inhibition of PAF-induced MPO released at a single concentration of PAF.

For test [3], the system named is human neutrophils (PAF-induced bead adhesion). Kind of test: PAF-induced adhesion of human neutrophils to latex beads. Format: cell-based. To be noted: Neutrophil, albumin-coated latex beads. The method, then: as §1
Latex bead suspension (0.6 ml; 10% aqueous suspension; particle diameter=1u) is pipeted into a 1.5 ml eppendorf centrifuge tube. The beads are pelleted by centrifugation, the supernatant is discarded and the beads are washed 2 times with 1 ml 0.9% saline. To the pelleted beads is added 0.5 ml 20 mg/ml human serum albunim (HSA) in Krebs-Ringer buffer.
Allow bed-albumin mixture to sit at room temperature for 10 minutes, centrifuge for 1 minute and remove the supernatant, and wash albumin-coated beads 3 times with saline. Resuspend the beads in 1 ml of Krebs-Ringer.
Human neutrophils are prepared as described for the neutrophil degranulation assay and 10^7 cells are added to 0.3 ml of Krebs-Ringerin the presence and absence of PAF and putative antagonist and are incubated at 37° for an appropriate period of time.
The albumin-coated beads are then added in 0.05 ml to give a final bead concentration of 1% v/v, resulting in a bead to neutrophil ratio of 100:1. The tubes containing cells and beads are then placed in an agitating water bath at 37° C. and 120 oscillation per minute for 10 minutes. The reaction is stopped by adding an equal volume of 2.5% glutaraldehyde in saline. The reaction tubes are allowed to stand at room temperature for 30 minutes. The cells are then washed 3 times (with centrifugation at 1000 rpm for 5 minutes) with saline to remove the unadhered latex beads and resuspended in 0.3 ml saline.
Wet mounts are prepared and adherence is examined by light microscopy at 400x. […] Activity of the antagonists is expressed as the percent inhibition of PAF-induced adherence.

The subject of the next test is PAF-induced edema. The test is described as follows: PAF-induced edema formation in rabbit skin. Format: in vivo. To be noted: for % Inhibition of PAF-induced edema: local intradermal, with PAF+PGE2, 30 minutes. The method, then: PAF (10^-9 moles/site) was mixed with […] (a vasodilator, 3×10^-10 moles/site) and injected intradermally in 0.1 ml volumes with six replicates per sample. After 30 minutes a cardiac blood sample was taken and the plasma perpared. The animal was then killed, the dorsal skin removed and injection sites were punched out. Skin samples were counted in a counter together with plasma samples and the amount of plasma leakage in skin sites expressed in terms of 1 μl plasma by comparing the skin radioactivity with that in 1 μl plasma.

For the compound `COc1ccc(C2=NCCc3cc(O)ccc32)cc1OC` [Compound 12a, 1-(3,4-Dimethoxyphenyl)-6-hydroxy-3,4-dihydroisoquinoline], the inhibition at 30 µM is 12% in test [1] (PAF-induced, rabbit platelets); 40% in test [2]; 90% in test [3].
For `COc1ccc(C2=NCCc3cc(OCCN(C)C)ccc32)cc1OC` [Compound 12b], in that order: 0%, 10% and 2%.
For `COc1ccc(C2=NCCc3ccccc32)cc1OC` [Compound A2, 1-(3,4-Dimethoxyphenyl)-3,4-dihydroisoquinoline], in that order: 48%, 7% and 2%.
Consider `COc1ccc(-c2nccc3ccccc23)cc1OC` [Compound A3, 1-(3,4-dimethoxyphenyl) isoquinoline], for which the inhibition at 30 µM in test [1] (PAF-induced, rabbit platelets) was found to be 80%; in test [2], 38%; in test [3], 2%.
Take `COc1ccc(C2=NCCc3cc(C)ccc32)cc1OC` [Compound C2, 1-(3,4-Dimethoxyphenyl)-6-methyl-3,4-dihydroisoquinoline]: the inhibition at 30 µM in test [1] (lot 2) worked out at 0%; in test [1] (lots 1 & 3), 38%; in test [2], 16%; in test [3] it was 10%.
For the compound `COc1ccc(-c2nccc3cc(C)ccc23)cc1OC` [Compound C3, 1-(3,4-dimethoxyphenyl)-6-methylisoquinoline], the inhibition at 30 µM worked out at 100% in test [1] (PAF-induced, rabbit platelets); 78% in test [2]; 30% in test [3]. Also, in test [2] (Homo sapiens, read-out: PAF-Induced Neutrophil Degranulation I50), the pIC50 is less than 4.52.
Turning to `COc1ccc(Cc2nccc3cc(C)ccc23)cc1OC` [Compound D3, 1-(3,4-Dimethoxybenzyl)-6-methylisoquinoline], the inhibition at 30 µM in test [1] (PAF-induced, rabbit platelets) was determined as 100%; in test [2], 57%; in test [3] it was 100%. In addition, the pIC50 in test [1] (PAF-induced, rabbit platelets) was 4.60.
As for `COc1ccc(CCC2=NCCc3cc(C)ccc32)cc1OC` [Compound E2], the inhibition at 30 µM in test [1] (PAF-induced, rabbit platelets) was determined as 92%; in test [2], 70%; in test [3], 2%.
As for `COc1ccc(CCc2nccc3cc(C)ccc23)cc1OC` [Compound E3, 1-[2-(3,4-Dimethoxyphenyl)ethyl]-6-methylisoquinoline], the inhibition at 30 µM came out at 90% in test [1] (PAF-induced, rabbit platelets); 77% in test [2]; 9% in test [3].
Take `COc1cc(C2=NCCc3cc(C)ccc32)cc(OC)c1OC` [Compound F2, 1-(3,4,5-Trimethoxyphenyl)-6-methyl-3,4-dihydroisoquinoline]: the inhibition at 30 µM is 48% in test [1] (PAF-induced, rabbit platelets); 27% in test [2]; 26% in test [3].
For the compound `COc1cc(-c2nccc3cc(C)ccc23)cc(OC)c1OC` [Compound F3, 1-(3,4,5-Trimethoxyphenyl)-6-methylisoquinoline], the inhibition at 30 µM in test [1] (PAF-induced, rabbit platelets) is 89%; in test [2], 60%; in test [3], 87%.
Consider `COc1cccc(C2=NCCc3cc(C)ccc32)c1` [Compound G2, 1-(3-Methoxyphenyl)-6-methyl-3,4-dihydroisoquinoline], for which the inhibition at 30 µM in test [1] (PAF-induced, rabbit platelets) came to 100%; in test [2] it was 14%; in test [3], 42%. Moreover, the pIC50 in test [1] (PAF-induced, rabbit platelets) is 4.70.
The matching figures for `COc1ccc(C2=NCCc3cc(C)ccc32)cc1` [Compound H2, 1-(4-Methoxyphenyl)-6-methyl-3,4-dihydroisoquinoline]: 100%, 25%, 3% and 4.74.
For `COc1ccc(C2=NCCc3cc(OCc4ccccc4)ccc32)cc1OC` [Compound I2, 1-(3,4-Dimethoxyphenyl)-6-benzyloxy-3,4-dihydroisoquinoline], in that order: 100%, 72%, 10% and 4.90.
On to `COc1ccc(Cc2nccc3cc(OCc4ccccn4)ccc23)cc1OC` [Compound J3a, 1-(3,4-Dimethoxybenzyl)-6-(2-pyridylmethyloxy) isoquinoline], for which the inhibition at 30 µM came to 88% in test [1] (PAF-induced, rabbit platelets); 70% in test [2]; 12% in test [3]. The pIC50 in test [1] (PAF-induced, rabbit platelets) was 6.10. Further, the “% Inhibition of PAF-induced edema” value was 62% with PAF-induced edema (10^-7 moles/site), 30% in the test with PAF-induced edema (10^-8 moles/site), -7% with PAF-induced edema (10^-9 moles/site) and 2% in the test on PAF-induced edema (10^-10 moles/site).
In the case of `CCCCC[C@H](O)/C=C/[C@H]1[C@H](O)CC(=O)[C@@H]1C/C=C\CCCC(=O)O` [PGE2, reference compound], the “Edema formation in rabbit skin (response to agent alone)” value with PAF-induced edema (intradermal, alone, compared with saline) is listed as “not much greater than seen with saline”.

Usually inhibition stands for the percentage by which the read-out fell short of the control.
